# Data published in ChEMBL document CHEMBL1649257, “Rapid detection of a point mutation in the parC gene associated with decreased susceptibility to fluoroquinolones in Mycoplasma bovis” (2009).
# Assays:
# Type in all cases: functional
# Mycoplasmopsis bovis [1] = assay: Antimicrobial activity against Mycoplasma bovis isolate 4243 harboring GyrA 83Phe and ParC 84Asn mutant by broth microdilution method
# Mycoplasmopsis bovis [2] = assay: Antimicrobial activity against Mycoplasma bovis isolate 962 harboring GyrA 83Phe and ParC 84Asn mutant by broth microdilution method
# Mycoplasmopsis bovis [3] = assay: Antimicrobial activity against Mycoplasma bovis isolate 2670 harboring GyrA 83Ser and ParC 84Asp mutant by broth microdilution method
# Mycoplasmopsis bovis [4] = assay: Antimicrobial activity against Mycoplasma bovis isolate 3222 harboring GyrA 83Ser and ParC 84Asp mutant by broth microdilution method
# Mycoplasmopsis bovis [5] = assay: Antimicrobial activity against Mycoplasma bovis isolate 861 harboring GyrA 83Ser and ParC 84Asp mutant by broth microdilution method
# Mycoplasmopsis bovis [6] = assay: Antimicrobial activity against Mycoplasma bovis isolate 2E harboring GyrA 83Ser and ParC 84Asp mutant by broth microdilution method
# Mycoplasmopsis bovis [7] = assay: Antimicrobial activity against Mycoplasma bovis isolate 8998 harboring GyrA 83Ser and ParC 84Asp mutant by broth microdilution method
# Mycoplasmopsis bovis [8] = assay: Antimicrobial activity against Mycoplasma bovis isolate 476-2 harboring GyrA 83Ser and ParC 84Asp mutant by broth microdilution method
# Mycoplasmopsis bovis [9] = assay: Antimicrobial activity against Mycoplasma bovis isolate 523 harboring GyrA 83Phe and ParC 84Asn mutant by broth microdilution method
# Mycoplasmopsis bovis [10] = assay: Antimicrobial activity against Mycoplasma bovis isolate 170 harboring GyrA 83Ser and ParC 84Asp mutant by broth microdilution method
# Mycoplasmopsis bovis [11] = assay: Antimicrobial activity against Mycoplasma bovis isolate 1416 harboring GyrA 83Phe and ParC 84Asp mutant by broth microdilution method
# Mycoplasmopsis bovis [12] = assay: Antimicrobial activity against Mycoplasma bovis isolate 111-2 harboring GyrA 83Ser and ParC 84Asp mutant by broth microdilution method
# Mycoplasmopsis bovis [13] = assay: Antimicrobial activity against Mycoplasma bovis isolate 6099 harboring GyrA 83Ser and ParC 84Asp mutant by broth microdilution method
# Mycoplasmopsis bovis [14] = assay: Antimicrobial activity against Mycoplasma bovis isolate 9771 harboring GyrA 83Phe and ParC 84Asn mutant by broth microdilution method
# Mycoplasmopsis bovis [15] = assay: Antimicrobial activity against Mycoplasma bovis isolate 4925 harboring GyrA 83Ser and ParC 84Asn mutant by broth microdilution method
# Mycoplasmopsis bovis [16] = assay: Antimicrobial activity against Mycoplasma bovis isolate K harboring GyrA 83Ser and ParC 84Asp mutant by broth microdilution method
# Mycoplasmopsis bovis [17] = assay: Antimicrobial activity against Mycoplasma bovis isolate 330 harboring GyrA 83Ser and ParC 84Asp mutant by broth microdilution method
# Mycoplasmopsis bovis [18] = assay: Antimicrobial activity against Mycoplasma bovis isolate 3036 harboring GyrA 83Phe and ParC 84Asp mutant by broth microdilution method
# Mycoplasmopsis bovis [19] = assay: Antimicrobial activity against Mycoplasma bovis isolate 77 harboring GyrA 83Phe and ParC 84Asp mutant by broth microdilution method
# Mycoplasmopsis bovis [20] = assay: Antimicrobial activity against Mycoplasma bovis isolate 3374 harboring GyrA 83Phe and ParC 84Asp mutant by broth microdilution method
# Mycoplasmopsis bovis [21] = assay: Antimicrobial activity against Mycoplasma bovis isolate 7910 harboring GyrA 83Ser and ParC 84Asp mutant by broth microdilution method
# Mycoplasmopsis bovis [22] = assay: Antimicrobial activity against Mycoplasma bovis isolate 2D harboring GyrA 83Ser and ParC 84Asp mutant by broth microdilution method
# Mycoplasmopsis bovis [23] = assay: Antimicrobial activity against Mycoplasma bovis isolate 4879 harboring GyrA 83Phe and ParC 84Asn mutant by broth microdilution method
# Mycoplasmopsis bovis [24] = assay: Antimicrobial activity against Mycoplasma bovis isolate 9603 harboring GyrA 83Ser and ParC 84Asp mutant by broth microdilution method
# Mycoplasmopsis bovis [25] = assay: Antimicrobial activity against Mycoplasma bovis isolate 1665 harboring GyrA 83Phe and ParC 84Asn mutant by broth microdilution method
# Mycoplasmopsis bovis [26] = assay: Antimicrobial activity against Mycoplasma bovis isolate 4554 harboring GyrA 83Ser and ParC 84Asp mutant by broth microdilution method
# Mycoplasmopsis bovis [27] = assay: Antimicrobial activity against Mycoplasma bovis isolate 4241 harboring GyrA 83Phe and ParC 84Asn mutant by broth microdilution method
# Mycoplasmopsis bovis [28] = assay: Antimicrobial activity against Mycoplasma bovis isolate 5180 harboring GyrA 83Ser and ParC 84Asp mutant by broth microdilution method
# Mycoplasmopsis bovis [29] = assay: Antimicrobial activity against Mycoplasma bovis isolate 3179 harboring GyrA 83Phe and ParC 84Asp mutant by broth microdilution method
# Mycoplasmopsis bovis [30] = assay: Antimicrobial activity against Mycoplasma bovis isolate 1972 harboring GyrA 83Phe and ParC 84Asn mutant by broth microdilution method
# Mycoplasmopsis bovis [31] = assay: Antimicrobial activity against Mycoplasma bovis isolate 1306 harboring GyrA 83Phe and ParC 84Asp mutant by broth microdilution method
# Mycoplasmopsis bovis [32] = assay: Antimicrobial activity against Mycoplasma bovis isolate 2458 harboring GyrA 83Phe and ParC 84Asp mutant by broth microdilution method
# Mycoplasmopsis bovis [33] = assay: Antimicrobial activity against Mycoplasma bovis isolate 7043 harboring GyrA 83Phe and ParC 84Asp mutant by broth microdilution method
# Mycoplasmopsis bovis [34] = assay: Antimicrobial activity against Mycoplasma bovis isolate 8830 harboring GyrA 83Phe and ParC 84Asn mutant by broth microdilution method
# Mycoplasmopsis bovis [35] = assay: Antimicrobial activity against Mycoplasma bovis isolate H harboring GyrA 83Ser and ParC 84Asp mutant by broth microdilution method
# Mycoplasmopsis bovis [36] = assay: Antimicrobial activity against Mycoplasma bovis isolate 5848 harboring GyrA 83Phe and ParC 84Asp mutant by broth microdilution method
# Mycoplasmopsis bovis [37] = assay: Antimicrobial activity against Mycoplasma bovis isolate 3181 harboring GyrA 83Phe and ParC 84Asn mutant by broth microdilution method
# Mycoplasmopsis bovis [38] = assay: Antimicrobial activity against Mycoplasma bovis isolate 2029 harboring GyrA 83Phe and ParC 84Asp mutant by broth microdilution method
# Mycoplasmopsis bovis [39] = assay: Antimicrobial activity against Mycoplasma bovis isolate 6226 harboring GyrA 83Ser and ParC 84Asp mutant by broth microdilution method
# Mycoplasmopsis bovis [40] = assay: Antimicrobial activity against Mycoplasma bovis isolate 8934 harboring GyrA 83Ser and ParC 84Asp mutant by broth microdilution method
# Mycoplasmopsis bovis [41] = assay: Antimicrobial activity against Mycoplasma bovis isolate 2643 harboring GyrA 83Phe and ParC 84Asp mutant by broth microdilution method
# Mycoplasmopsis bovis [42] = assay: Antimicrobial activity against Mycoplasma bovis isolate PG45 harboring GyrA 83Ser and ParC 84Asp mutant by broth microdilution method
# Mycoplasmopsis bovis [43] = assay: Antimicrobial activity against Mycoplasma bovis isolate 9249 harboring GyrA 83Ser and ParC 84Asp mutant by broth microdilution method
smiles,measurement,setting,value
CCN1CCN(c2cc3c(cc2F)c(=O)c(C(=O)O)cn3C2CC2)CC1 [ENROFLOXACIN],MIC,Mycoplasmopsis bovis [1],2.5 µg/mL
same,MIC,Mycoplasmopsis bovis [2],5 µg/mL
same,MIC,Mycoplasmopsis bovis [3],0.08 µg/mL
same,MIC,Mycoplasmopsis bovis [4],0.16 µg/mL
same,MIC,Mycoplasmopsis bovis [5],0.08 µg/mL
same,MIC,Mycoplasmopsis bovis [6],0.16 µg/mL
same,MIC,Mycoplasmopsis bovis [7],0.08 µg/mL
same,MIC,Mycoplasmopsis bovis [8],0.16 µg/mL
same,MIC,Mycoplasmopsis bovis [9],2.5 µg/mL
same,MIC,Mycoplasmopsis bovis [10],0.63 µg/mL
same,MIC,Mycoplasmopsis bovis [11],0.32 µg/mL
same,MIC,Mycoplasmopsis bovis [12],0.16 µg/mL
same,MIC,Mycoplasmopsis bovis [13],0.16 µg/mL
same,MIC,Mycoplasmopsis bovis [14],5 µg/mL
same,MIC,Mycoplasmopsis bovis [15],2.5 µg/mL
same,MIC,Mycoplasmopsis bovis [16],0.16 µg/mL
same,MIC,Mycoplasmopsis bovis [17],0.08 µg/mL
same,MIC,Mycoplasmopsis bovis [18],1.25 µg/mL
same,MIC,Mycoplasmopsis bovis [19],0.63 µg/mL
same,MIC,Mycoplasmopsis bovis [20],1.25 µg/mL
same,MIC,Mycoplasmopsis bovis [21],0.32 µg/mL
same,MIC,Mycoplasmopsis bovis [22],0.16 µg/mL
same,MIC,Mycoplasmopsis bovis [23],5 µg/mL
same,MIC,Mycoplasmopsis bovis [24],0.16 µg/mL
same,MIC,Mycoplasmopsis bovis [25],2.5 µg/mL
same,MIC,Mycoplasmopsis bovis [26],0.16 µg/mL
same,MIC,Mycoplasmopsis bovis [27],2.5 µg/mL
same,MIC,Mycoplasmopsis bovis [28],0.16 µg/mL
same,MIC,Mycoplasmopsis bovis [29],0.63 µg/mL
same,MIC,Mycoplasmopsis bovis [30],2.5 µg/mL
same,MIC,Mycoplasmopsis bovis [31],1.25 µg/mL
same,MIC,Mycoplasmopsis bovis [32],1.25 µg/mL
same,MIC,Mycoplasmopsis bovis [33],0.32 µg/mL
same,MIC,Mycoplasmopsis bovis [34],5 µg/mL
same,MIC,Mycoplasmopsis bovis [35],0.16 µg/mL
same,MIC,Mycoplasmopsis bovis [36],1.25 µg/mL
same,MIC,Mycoplasmopsis bovis [37],2.5 µg/mL
same,MIC,Mycoplasmopsis bovis [38],0.32 µg/mL
same,MIC,Mycoplasmopsis bovis [39],0.32 µg/mL
same,MIC,Mycoplasmopsis bovis [40],0.32 µg/mL
same,MIC,Mycoplasmopsis bovis [41],1.25 µg/mL
same,MIC,Mycoplasmopsis bovis [42],0.16 µg/mL
same,MIC,Mycoplasmopsis bovis [43],0.16 µg/mL
